Experimental findings from ChEMBL document CHEMBL1126852 (J Med Chem, 1993) are described below.

Test [1] concerns CCRF-CEM. Description: Tested for cell growth inhibition in CCRF-CEM lymphoblasts. The settings on record: Homo sapiens. Type of test: functional, cell-based.
Test [2] has as its target Dihydrofolate reductase (Lactobacillus casei, UniProt P00381). Description: Tested for inhibitory activity against dihydrofolate reductase in Lactobacillus casei. Further details: species or system Lacticaseibacillus casei.
The target of test [3] is T1, Dihydrofolate reductase (Rattus norvegicus, UniProt Q920D2).
T1 sequence (Q920D2 whole entry): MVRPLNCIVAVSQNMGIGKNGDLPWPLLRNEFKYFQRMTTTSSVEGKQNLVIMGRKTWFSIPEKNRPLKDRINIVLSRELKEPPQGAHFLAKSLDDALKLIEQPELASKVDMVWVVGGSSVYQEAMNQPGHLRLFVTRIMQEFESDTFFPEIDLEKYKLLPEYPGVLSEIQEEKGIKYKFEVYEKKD
Description: Inhibition of rat liver dihydrofolate reductase.

The target in test [4] is T2, Dihydrofolate reductase (Homo sapiens, UniProt P00374).
T2 sequence (P00374 whole entry): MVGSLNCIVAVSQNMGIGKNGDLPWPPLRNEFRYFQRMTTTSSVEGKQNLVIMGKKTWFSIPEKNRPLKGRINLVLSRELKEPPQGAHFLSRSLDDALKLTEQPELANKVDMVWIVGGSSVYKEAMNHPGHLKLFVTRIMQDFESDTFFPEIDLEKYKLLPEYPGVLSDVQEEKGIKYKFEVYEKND
Description: Tested for inhibitory activity against dihydrofolate reductase in human.

Test [5] addresses T3, Bifunctional dihydrofolate reductase-thymidylate synthase (Toxoplasma gondii, UniProt Q07422).
T3 sequence (Q07422 whole entry): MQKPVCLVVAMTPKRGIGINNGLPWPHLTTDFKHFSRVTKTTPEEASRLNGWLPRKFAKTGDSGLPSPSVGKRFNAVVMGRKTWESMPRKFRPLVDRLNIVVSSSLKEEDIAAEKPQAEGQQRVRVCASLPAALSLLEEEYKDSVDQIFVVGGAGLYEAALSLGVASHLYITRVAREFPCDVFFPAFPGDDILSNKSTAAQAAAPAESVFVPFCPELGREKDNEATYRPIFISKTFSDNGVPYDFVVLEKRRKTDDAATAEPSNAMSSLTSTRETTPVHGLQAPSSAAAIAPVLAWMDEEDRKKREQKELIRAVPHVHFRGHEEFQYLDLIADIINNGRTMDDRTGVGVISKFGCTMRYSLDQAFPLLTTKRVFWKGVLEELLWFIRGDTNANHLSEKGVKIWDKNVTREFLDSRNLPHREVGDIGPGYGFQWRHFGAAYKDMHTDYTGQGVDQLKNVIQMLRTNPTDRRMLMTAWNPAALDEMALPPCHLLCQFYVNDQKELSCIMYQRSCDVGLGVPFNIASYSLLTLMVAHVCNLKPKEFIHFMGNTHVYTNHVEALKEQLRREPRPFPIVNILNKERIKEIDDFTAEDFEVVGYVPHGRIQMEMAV
Description: Tested for inhibitory activity against dihydrofolate reductase in Toxoplasma gondii.

The target of test [6] is T4, Dihydrofolate reductase (Pneumocystis carinii, UniProt P16184).
T4 sequence (P16184 whole entry): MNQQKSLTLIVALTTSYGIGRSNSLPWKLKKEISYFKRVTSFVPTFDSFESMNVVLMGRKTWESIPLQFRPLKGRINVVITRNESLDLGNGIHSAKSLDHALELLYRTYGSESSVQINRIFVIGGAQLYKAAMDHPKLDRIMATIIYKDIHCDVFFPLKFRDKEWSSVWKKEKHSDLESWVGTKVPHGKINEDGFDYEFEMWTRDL
The test is described as follows: Tested for inhibitory activity against dihydrofolate reductase in pneumocystis carinii.

Sequence of Dihydrofolate reductase (Lactobacillus casei, UniProt P00381) (P00381 whole entry): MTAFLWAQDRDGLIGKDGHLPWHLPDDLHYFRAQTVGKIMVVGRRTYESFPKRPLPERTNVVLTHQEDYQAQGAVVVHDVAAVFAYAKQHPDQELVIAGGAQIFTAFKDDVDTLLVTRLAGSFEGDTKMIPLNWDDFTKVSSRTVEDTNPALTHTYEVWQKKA

The term IC50 denotes the point on the concentration scale where inhibition reaches its midpoint. A low value points to greater potency in that assay. As to `Nc1nc(N)c2c3c(sc2n1)CCCCCCCCCC3`, the IC50 came out at 3.7 µM in test [1], 12 µM in test [2] and 9.3 µM in test [3]. Take `COc1ccc(OC)c(CCc2sc3nc(N)nc(N)c3c2C)c1`: the results for the IC50 in test [4] and in test [3] were greater than 10 µM and 5.9 µM, respectively. As for `Nc1nc(N)c2c3c(sc2n1)CCCC3`, the IC50 in test [3] is 3.9 µM.

The compound `COc1ccc(OC)c(CCc2csc3nc(N)nc(N)c23)c1` yielded an IC50 in test [3] of 3.1 µM. As to `COc1cc(-c2sc3nc(N)nc(N)c3c2C)cc(OC)c1OC`, the IC50 in test [4] was greater than 10 µM; in test [3], 1.8 µM. In test [3], `Nc1nc(N)c2c3c(sc2n1)CCCCC3` registered an IC50 of 1.3 µM. In the case of `COc1ccc(OC)c(-c2sc3nc(N)nc(N)c3c2C)c1`, the half-inhibitory concentration (IC50) was 0.75 µM in test [4] and 0.37 µM in test [3]. On to `COc1ccc(OC)c(CCCc2csc3nc(N)nc(N)c23)c1`, for which the IC50 in test [3] is 26 µM.

Regarding `COc1ccc(OC)c(Cc2sc3nc(N)nc(N)c3c2C)c1`, the concentration for half-maximal inhibition (IC50) was 0.73 µM in test [4] and 0.4 µM in test [3]. For `COc1cc(CCc2sc3nc(N)nc(N)c3c2C)cc(OC)c1OC`, the results for the IC50 in test [4] and in test [3] were greater than 10 µM and 25 µM, respectively. For `Cc1c(-c2ccc(Cl)c(Cl)c2)sc2nc(N)nc(N)c12`, the IC50 in test [2] came out at 2 µM; in test [3] it was 4.6 µM. As to `Cc1c(Cc2ccccc2)sc2nc(N)nc(N)c12`, the IC50 stood at 15 µM in test [1], 1.3 µM in test [2] and 14 µM in test [3]. With `Cc1sc2nc(N)nc(N)c2c1Cc1ccccc1`, the values for the IC50 in test [2] and in test [3] were greater than 50 µM and greater than 37 µM, respectively.

`COc1cc(Cc2sc3nc(N)nc(N)c3c2C)cc(OC)c1OC`: the IC50 was greater than 10 µM in test [4] and 51 µM in test [3]. For `Nc1nc(N)c2c3c(sc2n1)CN(Cc1ccccc1)CC3`, the IC50 in test [5] is 0.85 µM; in test [6] it was 5.2 µM; in test [3] it was 0.57 µM.

`Nc1nc(N)c2c3c(sc2n1)CCCCCC3` displayed an IC50 in test [1] of 12 µM. The same measure, in the same setting: then `Cc1c(-c2ccccc2)sc2nc(N)nc(N)c12`, with 14 µM. As for `Cc1sc2nc(N)nc(N)c2c1-c1ccc(Cl)cc1`, the IC50 in test [2] was greater than 50 µM; in test [3], greater than 100 µM.
